These results are taken from publication PMC11617653, “Macrocyclic Inhibitors Targeting the Prime Site of the Fibrinolytic Serine Protease Plasmin” (Chemmedchem, 2024).

Several values for one entry are separate records, joined by “and”; a condition that tells them apart may be missing. Identical values can stand only once. Like-named read-outs stand apart in the source and are kept apart here. Positions of bridges follow the written chain, without caps; N, C: chain ends. Non-standard residues stand in square brackets, D forms with d. Residues, ends and D or L forms follow the SMILES beside them. Phe(4-NH2) = Nc1ccc(C[C@H](N)C(=O)O)cc1; Trx = NC[C@H]1CC[C@H](C(=O)O)CC1; βAla = NCCC(=O)O

What all share (type): biochemical
Assay [1] concerns the target activated protein C (aPC) (Homo sapiens, UniProt P04070). The assay is described as follows: Selectivity: inhibition of activated protein C. The conditions noted are these: deduced from pre-assays with only three inhibitor concentrations; read-out: aPC K i. As to the method: (§1) For these three proteases a selectivity index (SI=K i(protease)/K i(plasmin)) was calculated, which is provided in brackets after the inhibition constants (Table 3).
(§2) The measurements with the related trypsin‐like serine proteases trypsin, plasma kallikrein, factor XIa, thrombin, activated protein Ca and factor Xa used in selectivity studies were performed as described previously.[11, 12]

For a further assay, the target named is factor Xa (fXa) (Homo sapiens, UniProt P00742). As to the kind of experiment: Selectivity: inhibition of factor Xa. The conditions noted are these: deduced from pre-assays with only three inhibitor concentrations; read-out: fXa K i. As to the method:
as §1, §2

The target of a further assay is thrombin (Homo sapiens, UniProt P00734). The assay is described as follows: Selectivity: inhibition of thrombin. The conditions noted are these: deduced from pre-assays with only three inhibitor concentrations; read-out: Thrombin K i. As to the method:
as §1, §2

The next assay concerns the target plasma kallikrein (PK) (Homo sapiens, UniProt P03952). The assay is described as follows: Selectivity: inhibition of plasma kallikrein. The conditions noted are these: for PK selectivity index K i(protease)/Ki(plasmin): in brackets; for Ki: read-out: PK K i. As to the method:
as §1, §2

Another assay addresses T1, human plasmin (Homo sapiens, UniProt P00747).
T1 construct: purchased Calbiochem
The assay is described as follows: Inhibition of human plasmin, fluorogenic substrate Mes-DArg-Phe-Arg-AMC. The conditions noted are these: for fold weaker plasmin inhibition than inhibitor 28: compared with cyclic inhibitor 28. As to the method:
All inhibitors prepared in this study act as reversible competitive plasmin inhibitors, their K i values were calculated by fitting the steady‐state velocities as function of the inhibitor concentrations using equation 1. 4‐aminophenylalanine (Phe(4‐NH2)) was incorporated as P1’ residue in the first inhibitor series, which enabled a macrocyclization via amide bond formation from its side chain amino group using various linker segments and P2’ residues (Table 1). […] The improved potency of SFTI‐1 analogues with basic P2’ residues[9] stimulated the incorporation of Arg in that position leading to inhibitor 4 with a slightly stronger inhibitory potency. A significant improvement could be achieved when using 3‐ or 4‐aminophenylacetic acid as P2’ group in combination with elongated linker residues (5‐6). […] However, inhibitor 9 is a twofold stronger plasmin inhibitor compared to its analogue 8.
For these inhibitors the steady‐state velocities were calculated by fitting the progress curves to equation 2 providing an additional apparent first‐order rate constant k obs for each curve. The steady‐state rates were used for K i determination with equation 1 and the k obs values for the calculation of the association rate constants k on according to equation 3. The dissociation rate constant k off was calculated from the known K i and k on values using equation 4. The enzyme kinetic evaluation of slow‐binding inhibitors of plasmin has already been described in detail in our two previous publications.[11, 12]
All measurements were conducted as triplicates in black 96‐well FluoroNunc MaxiSorp plates (Nunc, Langenselbold, Germany) and suitable fluorogenic substrates at room temperature. […] Each well contained a total volume of 180 μL consisting of 100 μL of inhibitor dissolved in buffer, 40 μL of the substrate Mes‐DArg‐Phe‐Arg‐AMC[11] (100 μM in assay, KM=16.1 μM) dissolved in water and 40 μL of plasmin solution (0.27 nM in assay). The following equations were used for the enzyme kinetic analysis as described in the results section and in our previous publications.[11, 12] (1) [drawing 71] (2) [drawing 72] (3) [drawing 73] (4) [drawing 74]

The target of a further assay is factor XIa (fXIa) (Homo sapiens, UniProt P03951). As to the kind of experiment: Selectivity: inhibition of factor XIa. The conditions noted are these: for fXIa selectivity index K i(protease)/Ki(plasmin): in brackets; for Ki: read-out: fXIa K i. The protocol:
as §1, §2

[2] abbreviates: K i (nM), inhibition of plasmin, series two, substituted Bpa in P1', and acyclic analogues, steady-state velocities, equation 1.
Where [3] appears, read: Plasmin K i, Table 3 selectivity.
Setting [4] is: K i (μM), inhibition of plasmin, series one, 4-aminophenylalanine in P1', steady-state velocities, equation 1.

T1 sequence (P00747 581-810): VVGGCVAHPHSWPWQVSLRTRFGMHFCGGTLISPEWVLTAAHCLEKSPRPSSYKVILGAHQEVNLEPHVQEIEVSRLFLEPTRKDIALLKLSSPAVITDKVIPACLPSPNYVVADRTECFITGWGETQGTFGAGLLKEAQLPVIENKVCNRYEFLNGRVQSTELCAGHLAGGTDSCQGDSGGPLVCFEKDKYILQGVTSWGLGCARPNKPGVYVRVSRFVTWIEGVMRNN
T1 sequence (P00747 97-580): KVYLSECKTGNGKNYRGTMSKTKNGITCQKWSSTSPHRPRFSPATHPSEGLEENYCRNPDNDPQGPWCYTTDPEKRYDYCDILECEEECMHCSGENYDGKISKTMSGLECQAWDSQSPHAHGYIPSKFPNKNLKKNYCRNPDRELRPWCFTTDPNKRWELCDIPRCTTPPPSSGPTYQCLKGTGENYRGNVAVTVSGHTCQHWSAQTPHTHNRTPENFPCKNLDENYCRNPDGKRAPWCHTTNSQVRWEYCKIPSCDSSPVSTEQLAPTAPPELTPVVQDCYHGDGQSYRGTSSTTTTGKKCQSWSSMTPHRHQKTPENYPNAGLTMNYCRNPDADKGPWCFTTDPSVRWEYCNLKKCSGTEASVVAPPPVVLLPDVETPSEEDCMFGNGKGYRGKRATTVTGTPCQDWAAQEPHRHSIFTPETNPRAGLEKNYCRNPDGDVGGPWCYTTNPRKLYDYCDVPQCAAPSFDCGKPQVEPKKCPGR
Chain of plasma kallikrein (PK) (P03952 391-638): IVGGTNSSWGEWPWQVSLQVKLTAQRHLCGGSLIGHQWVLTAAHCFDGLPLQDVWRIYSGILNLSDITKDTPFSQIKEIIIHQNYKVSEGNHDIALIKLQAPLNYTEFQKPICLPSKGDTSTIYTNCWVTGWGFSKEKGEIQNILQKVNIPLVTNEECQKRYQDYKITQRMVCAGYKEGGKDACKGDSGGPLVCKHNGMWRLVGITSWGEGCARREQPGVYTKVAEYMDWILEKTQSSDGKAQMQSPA
Chain of plasma kallikrein (PK) (P03952 20-390): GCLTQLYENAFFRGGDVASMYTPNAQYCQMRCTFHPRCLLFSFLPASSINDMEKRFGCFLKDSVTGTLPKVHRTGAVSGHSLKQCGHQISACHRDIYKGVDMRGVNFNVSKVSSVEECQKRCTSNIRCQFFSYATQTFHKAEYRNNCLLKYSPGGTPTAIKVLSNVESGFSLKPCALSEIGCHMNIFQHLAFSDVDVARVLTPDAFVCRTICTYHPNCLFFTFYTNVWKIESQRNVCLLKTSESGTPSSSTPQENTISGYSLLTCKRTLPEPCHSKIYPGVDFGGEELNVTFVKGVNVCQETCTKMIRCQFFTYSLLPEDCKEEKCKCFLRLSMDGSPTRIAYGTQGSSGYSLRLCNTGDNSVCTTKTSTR
Chain of factor XIa (fXIa) (P03951 19-387): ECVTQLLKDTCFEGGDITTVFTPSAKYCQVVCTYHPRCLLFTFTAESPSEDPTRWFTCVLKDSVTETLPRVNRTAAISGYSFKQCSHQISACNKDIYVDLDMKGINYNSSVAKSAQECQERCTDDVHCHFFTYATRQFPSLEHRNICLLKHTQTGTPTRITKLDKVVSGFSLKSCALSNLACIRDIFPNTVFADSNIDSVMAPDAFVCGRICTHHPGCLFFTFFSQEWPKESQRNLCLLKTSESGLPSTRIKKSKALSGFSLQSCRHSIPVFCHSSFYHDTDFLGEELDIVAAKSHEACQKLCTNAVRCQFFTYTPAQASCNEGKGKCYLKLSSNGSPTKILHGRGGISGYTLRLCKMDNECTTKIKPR
Chain of factor XIa (fXIa) (P03951 388-625): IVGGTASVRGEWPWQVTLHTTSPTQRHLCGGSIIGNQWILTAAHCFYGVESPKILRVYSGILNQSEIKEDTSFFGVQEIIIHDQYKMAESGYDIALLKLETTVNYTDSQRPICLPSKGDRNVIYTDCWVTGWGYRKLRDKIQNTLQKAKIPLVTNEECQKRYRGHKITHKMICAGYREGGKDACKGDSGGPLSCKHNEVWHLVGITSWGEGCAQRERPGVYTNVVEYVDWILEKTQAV
Chain of factor Xa (fXa) (P00742 41-179): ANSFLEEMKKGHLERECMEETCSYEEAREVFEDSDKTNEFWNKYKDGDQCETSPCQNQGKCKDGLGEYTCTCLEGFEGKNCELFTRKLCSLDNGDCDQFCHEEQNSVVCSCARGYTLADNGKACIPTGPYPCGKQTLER
Chain of factor Xa (fXa) (P00742 235-488): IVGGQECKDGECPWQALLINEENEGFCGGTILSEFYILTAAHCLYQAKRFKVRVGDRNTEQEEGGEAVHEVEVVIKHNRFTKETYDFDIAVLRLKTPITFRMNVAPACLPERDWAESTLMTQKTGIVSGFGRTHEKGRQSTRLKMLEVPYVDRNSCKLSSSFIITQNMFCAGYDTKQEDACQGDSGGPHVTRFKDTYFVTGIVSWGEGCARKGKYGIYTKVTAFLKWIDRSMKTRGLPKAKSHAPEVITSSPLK
Chain of activated protein C (aPC) (P04070 43-197): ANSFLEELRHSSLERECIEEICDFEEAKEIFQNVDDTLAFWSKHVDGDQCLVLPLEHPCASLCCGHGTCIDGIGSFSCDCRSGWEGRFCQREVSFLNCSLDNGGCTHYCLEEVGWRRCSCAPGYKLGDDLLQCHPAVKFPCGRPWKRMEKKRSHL
Chain of activated protein C (aPC) (P04070 212-461): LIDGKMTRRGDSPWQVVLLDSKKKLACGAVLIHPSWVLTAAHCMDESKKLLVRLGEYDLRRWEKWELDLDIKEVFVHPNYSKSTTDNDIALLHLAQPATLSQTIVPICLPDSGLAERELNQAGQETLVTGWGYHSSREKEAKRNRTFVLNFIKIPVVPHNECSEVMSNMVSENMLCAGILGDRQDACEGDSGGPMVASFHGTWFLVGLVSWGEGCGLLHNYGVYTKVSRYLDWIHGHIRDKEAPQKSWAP

Turning to `NC[C@H]1CC[C@H](C(=O)N[C@H]2Cc3ccc(cc3)-c3ccc(C(=O)Nc4ccccc4)c(c3)NC(=O)CNC(=O)CCCNC(=O)Cc3ccc(cc3)NC2=O)CC1` [inhibitor 32], the Ki in assay [1] is over 20000 nM; on factor Xa (fXa), over 5000 nM; at thrombin, over 25000 nM; at plasma kallikrein (PK), 15 ± 1 nM; at human plasmin (setting [2]), 1.46 ± 0.07 nM; on human plasmin (setting [3]) it was 1.46 nM. At factor XIa (fXIa), the Ki turned out to be 5.3 ± 1.4 nM. Further, at plasma kallikrein (PK), the “PK selectivity index K i(protease)/Ki(plasmin)” value is on record as 11. Moreover, the “fXIa selectivity index K i(protease)/Ki(plasmin)” value on factor XIa (fXIa) is listed as 4.
Regarding `Cc1ccc2cc1NC(=O)CNC(=O)CCNC(=O)Cc1cccc(c1)NC(=O)[C@@H](NC(=O)[C@H]1CC[C@H](CN)CC1)Cc1ccc-2cc1` [inhibitor 41], at human plasmin (setting [2]), the Ki is 20.6 ± 0.5 nM.
In the case of `NC[C@H]1CC[C@H](C(=O)N[C@H]2Cc3ccc(cc3)NC(=O)[C@H](Cc3ccccc3)NC(=O)CCNC(=O)Cc3ccc(cc3)NC2=O)CC1` [inhibitor 12, (1r,4S)‐4‐(aminomethyl)‐N‐((4S,9S)‐9‐benzyl‐3,8,11,15‐tetraoxo‐2,7,10,14‐tetraaza‐1,6(1,4)‐dibenzenacyclohexadecaphane‐4‐yl)cyclohexane‐1‐carboxamide], the Ki at human plasmin (setting [4]) is 710 nM and 714 nM.
For `Cc1ccc2cc1NC(=O)CNC(=O)CCCNC(=O)Cc1cccc(c1)CNC(=O)[C@@H](NC(=O)[C@H]1CC[C@H](CN)CC1)Cc1ccc-2cc1` [inhibitor 42], the Ki at human plasmin (setting [2]) was determined as 284 ± 24 nM.
Consider `Cc1ccc2cc1NC(=O)CNC(=O)CCCNC(=O)Cc1ccc(cc1)NC(=O)[C@@H](NC(=O)[C@H]1CC[C@H](CN)CC1)Cc1ccc-2cc1` [inhibitor 28], for which the Ki in assay [1] is over 35000 nM; at factor Xa (fXa) it was over 8000 nM; at thrombin, over 60000 nM; at plasma kallikrein (PK), 31 ± 14 nM; at human plasmin (setting [2]), 0.83 nM and 0.832 nM; on human plasmin (setting [3]) it was 0.832 nM. Moreover, on factor XIa (fXIa), the Ki was 41 ± 3.2 nM. The “PK selectivity index K i(protease)/Ki(plasmin)” value at plasma kallikrein (PK) came to 38. In addition, on human plasmin, the “fold stronger plasmin inhibition than acyclic analogues 46 and 47” value was “approximately 75 fold”. The “fXIa selectivity index K i(protease)/Ki(plasmin)” value on factor XIa (fXIa) was determined as 49.
`NC[C@H]1CC[C@H](C(=O)N[C@H]2Cc3ccc(cc3)NC(=O)CCNC(=O)CNC(=O)Cc3ccc(cc3)NC2=O)CC1` [inhibitor 8]: on human plasmin (setting [4]), the Ki was determined as 5530 ± 420 nM.
With `Cc1ccc2cc1NC(=O)CCN1CCN(CC1)C(=O)Cc1ccc(cc1)NC(=O)[C@@H](NC(=O)[C@H]1CC[C@H](CN)CC1)Cc1ccc-2cc1` [inhibitor 37], the Ki at human plasmin (setting [2]) came out at 13 ± 0.2 nM.
Regarding `Cc1ccc2cc1NC(=O)CCCNC(=O)CNC(=O)Cc1ccc(cc1)NC(=O)[C@@H](NC(=O)[C@H]1CC[C@H](CN)CC1)Cc1ccc-2cc1` [inhibitor 27], the Ki on human plasmin (setting [2]) amounted to 17 ± 0.6 nM. In addition, the “fold weaker plasmin inhibition than inhibitor 28” value at human plasmin is recorded as “at least 20 fold”.
As to `NC[C@H]1CC[C@H](C(=O)N[C@H]2Cc3ccc(cc3)NC(=O)CCCCCNC(=O)Cc3cccc(c3)NC2=O)CC1` [inhibitor 5], the Ki at human plasmin (setting [4]) turned out to be 5810 ± 1090 nM.
In the case of `NC[C@H]1CC[C@H](C(=O)N[C@H]2Cc3ccc(cc3)NC(=O)CNC(=O)CCNC(=O)Cc3ccc(cc3)NC2=O)CC1` [inhibitor 9], the Ki on human plasmin (setting [4]) stood at 2820 ± 200 nM.
On to `CC(C)C[C@@H]1NC(=O)CCNC(=O)Cc2ccc(cc2)NC(=O)[C@@H](NC(=O)[C@H]2CC[C@H](CN)CC2)Cc2ccc(cc2)NC1=O` [inhibitor 10], for which, at human plasmin (setting [4]), the Ki is 3330 ± 410 nM.
As for `NC[C@H]1CC[C@H](C(=O)N[C@H]2Cc3ccc(cc3)NC(=O)CCCCCNC(=O)Cc3ccc(cc3)NC2=O)CC1` [inhibitor 6], the Ki at human plasmin (setting [4]) turned out to be 1380 ± 150 nM.
As for `N=C(N)NCCC[C@@H]1NC(=O)[C@@H](NC(=O)[C@H]2CC[C@H](CN)CC2)Cc2ccc(cc2)NC(=O)CCNC1=O` [inhibitor 4] (H-[Trx][Phe(4-NH2)]R[βAla]; lactam 2-C), the Ki at human plasmin (setting [4]) stood at 110000 ± 56000 nM.
Consider `NC[C@H]1CC[C@H](C(=O)N[C@H]2Cc3ccc(cc3)NC(=O)CCCCNC(=O)Cc3ccc(cc3)NC2=O)CC1` [inhibitor 7], for which, at human plasmin (setting [4]), the Ki stood at 2450 ± 20 nM.
As to `Cc1ccc2cc1NC(=O)CNC(=O)CCCNC(=O)c1ccc3cc(ccc3c1)NC(=O)[C@@H](NC(=O)[C@H]1CC[C@H](CN)CC1)Cc1ccc-2cc1` [inhibitor 44], the Ki on human plasmin (read-out: K i (nM), inhibition of plasmin, series two, substituted Bpa in P1', and acyclic analogues, steady-state velocities, equation 1) was 10.3 ± 0.2 nM.
With `Cc1ccc2cc1NC(=O)CNC(=O)CCNC(=O)Cc1ccc(cc1)NC(=O)[C@@H](NC(=O)[C@H]1CC[C@H](CN)CC1)Cc1ccc-2cc1` [inhibitor 25], the Ki on human plasmin (setting [2]) was 33.8 ± 1.4 nM. Besides, the “fold weaker plasmin inhibition than inhibitor 28” value at human plasmin was “at least 20 fold”.
Consider `Cc1ccc2cc1NC(=O)Cc1ccc(cc1)NC(=O)Cc1ccc(cc1)NC(=O)[C@@H](NC(=O)[C@H]1CC[C@H](CN)CC1)Cc1ccc-2cc1` [inhibitor 24], for which the “fold enhanced plasmin potency compared with compound 22” value on human plasmin came to 4 fold. Also, the Ki on human plasmin (setting [2]) came to 10.5 ± 1.4 nM.
For `Cc1ccc2cc1NC(=O)[C@@H](N)CCCCNC(=O)Cc1ccc(cc1)NC(=O)[C@@H](NC(=O)[C@H]1CC[C@H](CN)CC1)Cc1ccc-2cc1` [inhibitor 35], the Ki at human plasmin (setting [2]) came out at 29.8 ± 1.6 nM.
Still for that read-out and setting: the result for `Cc1ccc2cc1NC(=O)[C@H](N)CCCCNC(=O)Cc1ccc(cc1)NC(=O)[C@@H](NC(=O)[C@H]1CC[C@H](CN)CC1)Cc1ccc-2cc1` [inhibitor 34] reads 36.5 ± 0.7 nM; that for `Cc1ccc2cc1NC(=O)CCCCCNC(=O)Cc1ccc(cc1)NC(=O)[C@@H](NC(=O)[C@H]1CC[C@H](CN)CC1)Cc1ccc-2cc1` [inhibitor 22], 42 nM and 42.1 nM; that for `Cc1ccc2cc1NC(=O)CNC(=O)CCCCNC(=O)c1ccc3cc(ccc3c1)NC(=O)[C@@H](NC(=O)[C@H]1CC[C@H](CN)CC1)Cc1ccc-2cc1` [inhibitor 43], 5.14 ± 0.27 nM.
For `Cc1ccc2cc1NC(=O)CCCN1CCN(CC1)C(=O)Cc1ccc(cc1)NC(=O)[C@@H](NC(=O)[C@H]1CC[C@H](CN)CC1)Cc1ccc-2cc1` [inhibitor 36], at human plasmin (setting [2]), the Ki is 112 ± 6 nM.
Turning to `Cc1ccc(-c2ccc(C[C@H](NC(=O)[C@H]3CC[C@H](CN)CC3)C(=O)Nc3ccc(CC(=O)NCCCC(=O)NCC(=O)O)cc3)cc2)cc1N` [inhibitor 46], the Ki on human plasmin (setting [2]) worked out at 86.1 ± 6.6 nM.
For the compound `NC[C@H]1CC[C@H](C(=O)N[C@H]2Cc3ccc(cc3)NC(=O)CCNC(=O)CNC2=O)CC1` [inhibitor 3] (H-[Trx][Phe(4-NH2)]G[βAla]; lactam 2-C), the Ki at human plasmin (setting [4]) was 150000 ± 31000 nM.
With `Cc1ccc2cc1NC(=O)CNC(=O)CCCCNC(=O)Cc1cccc(c1)NC(=O)[C@@H](NC(=O)[C@H]1CC[C@H](CN)CC1)Cc1ccc-2cc1` [inhibitor 39], the Ki at human plasmin (setting [2]) is 26.9 ± 0.5 nM.
For the compound `Cc1ccc2cc1NC(=O)CN1CCN(CC1)C(=O)Cc1ccc(cc1)NC(=O)[C@@H](NC(=O)[C@H]1CC[C@H](CN)CC1)Cc1ccc-2cc1` [inhibitor 38], the Ki at human plasmin (setting [2]) was found to be 35.7 ± 1.1 nM.
The same measure, in the same setting: the result for `Cc1ccc2cc1NC(=O)CCNC(=O)CNC(=O)Cc1ccc(cc1)NC(=O)[C@@H](NC(=O)[C@H]1CC[C@H](CN)CC1)Cc1ccc-2cc1` [inhibitor 26] reads 33.1 ± 3.2 nM; that for `Cc1ccc2cc1NC(=O)C1CCC(CC1)CNC(=O)Cc1ccc(cc1)NC(=O)C(NC(=O)C1CCC(CN)CC1)Cc1ccc-2cc1` (stereo not drawn) [inhibitor 23], 109 ± 4 nM; that for `Cc1ccc2cc1NC(=O)CNC(=O)CCCCNC(=O)Cc1ccc(cc1)NC(=O)[C@@H](NC(=O)[C@H]1CC[C@H](CN)CC1)Cc1ccc-2cc1` [inhibitor 29], 62.6 ± 2.3 nM.
For `CC(C)C[C@H]1NC(=O)CCNC(=O)Cc2ccc(cc2)NC(=O)[C@@H](NC(=O)[C@H]2CC[C@H](CN)CC2)Cc2ccc(cc2)NC1=O` [inhibitor 11], the Ki on human plasmin (setting [4]) was 3850 ± 280 nM.
For the compound `Cc1ccc(-c2ccc(C[C@H](NC(=O)[C@H]3CC[C@H](CN)CC3)C(=O)Nc3ccc(CC(=O)NCCCC(=O)NCC(N)=O)cc3)cc2)cc1N` [inhibitor 47], the Ki on human plasmin (setting [2]) came out at 65.1 ± 1.7 nM.
